Laboratory results from US12336982B2 (RODEO THERAPEUTICS CORPORATION, priority 2018, dated 2025).

Target: T1, recombinant 15-PGDH (Homo sapiens, UniProt P15428)
T1 sequence (P15428 1-266): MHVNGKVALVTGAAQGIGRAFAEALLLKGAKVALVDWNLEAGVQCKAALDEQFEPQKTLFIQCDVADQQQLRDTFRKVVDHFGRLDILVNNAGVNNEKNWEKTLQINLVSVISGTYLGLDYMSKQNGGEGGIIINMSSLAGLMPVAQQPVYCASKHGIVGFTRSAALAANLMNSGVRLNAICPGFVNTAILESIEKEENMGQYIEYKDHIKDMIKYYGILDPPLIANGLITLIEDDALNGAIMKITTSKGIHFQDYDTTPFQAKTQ
Format: biochemical
Settings: recombinant human 15-PGDH, in vitro; read-out: PDGH Assay-IC50
Text: The Recombinant 15-PGDH is human unless otherwise specified.

IC50	SMILES
≥ 10 nM	COCC[S@+]([O-])c1sc2nc(-c3cncnc3)cc(-c3ccccc3)c2c1N [Example 86]
2.5 to 10 nM	COCC[S+]([O-])c1sc2nc(-c3cnc(N(C)CCO)nc3)cc(C(F)(F)F)c2c1N (stereo not drawn) [Example 186]
2.5 to 10 nM	COCC[S+]([O-])c1sc2nc(-c3cnc(NCCO)nc3)cc(C(F)(F)F)c2c1N (stereo not drawn) [Example 140]
< 2.5 nM	COCC[S+]([O-])c1sc2nc(-c3cnn(C)c(=O)c3)cc(C3CCC3)c2c1N (stereo not drawn) [Example 396]
< 2.5 nM	Cc1ncc(-c2cc(-c3cnn(C)c3)c3c(N)c([S+]([O-])C4CCC4)sc3n2)cn1 (stereo not drawn) [Example 281]
< 2.5 nM	COCC[S+]([O-])c1sc2nc(-c3ccc4c(=O)[nH]ccc4c3)cc(-c3ccnn3C)c2c1N (stereo not drawn) [Example 317]
2.5 to 10 nM	COCC[S+]([O-])c1sc2nc(-c3cnc(N4CC(O)C4)nc3)cc(-c3ccccc3)c2c1N (stereo not drawn) [Example 300]
2.5 to 10 nM	COCCC[S+]([O-])c1sc2nc(-c3ccc(NC(=O)OC)nc3)cc(-c3cccnc3)c2c1N (stereo not drawn) [Example 105]
2.5 to 10 nM	COCC[S+]([O-])c1sc2nc(-c3ccc(N)nc3)cc(C(F)(F)F)c2c1N (stereo not drawn) [Example 135]
2.5 to 10 nM	Nc1c([S+]([O-])C2CCC2)sc2nc(-c3cnc(NCCO)nc3)cc(-c3cccc(C(F)(F)F)c3)c12 (stereo not drawn) [Example 168]
< 2.5 nM	COCC[S+]([O-])c1sc2nc(-c3cnc4c(cnn4C)c3)cc(-c3ccccc3)c2c1N (stereo not drawn) [Example 120]
≥ 10 nM	Nc1c([S@@+]([O-])C2CCC2)sc2nc(-c3cnc(NCCOCCO)nc3)cc(-c3ccccc3)c12 [Example 185]
< 2.5 nM	Nc1c([S+]([O-])C2CCC2)sc2nc(-c3cncnc3)cc(C34CC(C3)C4)c12 (stereo not drawn) [Example 257]
< 2.5 nM	Nc1c([S+]([O-])C2CCC2)sc2nc(-c3cnc(N4CC(O)C4)nc3)cc(-c3ccccc3)c12 (stereo not drawn) [Example 248]
< 2.5 nM	CNc1ncc(-c2cc(-c3ncccn3)c3c(N)c([S+]([O-])C4CCC4)sc3n2)cn1 (stereo not drawn) [Example 329]
< 2.5 nM	Cn1nccc1-c1cc(-c2cnc(NCCO)nc2)nc2sc([S@+]([O-])C3CCC3)c(N)c12 [Example 313]
< 2.5 nM	Cn1cnc2ncc(-c3cc(C4CC4)c4c(N)c([S+]([O-])C5CCC5)sc4n3)cc21 (stereo not drawn) [Example 407]
< 2.5 nM	COCC[S+]([O-])c1sc2nc(-c3cnc4nn(C)cc4c3)cc(-c3ccnn3C)c2c1N (stereo not drawn) [Example 334]
2.5 to 10 nM	CN(CCO)c1ncc(-c2cc(C(F)(F)F)c3c(N)c([S+]([O-])C4CCC4)sc3n2)cn1 (stereo not drawn) [Example 188]
< 2.5 nM	COCCC[S+]([O-])c1sc2nc(-c3cnc(N)nc3)cc(C3CC3)c2c1N (stereo not drawn) [Example 107]
< 2.5 nM	Nc1c([S+]([O-])C2CCC2)sc2nc(-c3cnc(NCCO)nc3)cc(C3COC3)c12 (stereo not drawn) [Example 222]
< 2.5 nM	COCCC[S+]([O-])c1sc2nc(-c3cnn(C)c3)cc(C(F)(F)F)c2c1N (stereo not drawn) [Example 427]
< 2.5 nM	COCCC[S+]([O-])c1sc2nc(-c3cnc4nn(C)cc4c3)cc(-c3cccnc3)c2c1N (stereo not drawn) [Example 75]
< 2.5 nM	Nc1c([S+]([O-])C2CCC2)sc2nc(-c3cnc(NCCO)nc3)cc(-c3cccc(F)c3)c12 (stereo not drawn) [Example 157]
